Conditions: over 4 weeks of storage

CNC[C@H](O)c1ccc(O)c(O)c1 [micronized epinephrine bitartrate, epinephrine bitartrate]
tendency to agglomerate: naturally tends to agglomerate
